Patent publication US20210094922A1, “Dyes for Analysis of Soluble Protein Aggregates or Misfolded Protein Oligomers” (The Penn State Research Foundation, priority 2018, published 2021)
Entries after “also recorded” stand apart in the source; their conditions may differ.

How the values were obtained:
SOD1(V31A)-Halo [1] = biological target: SOD1(V31A)-Halo (Rhodococcus rhodochrous, UniProt P0A3G2, A155T/A167V/A172T/A224E/C128F/C176G/D78G/E160K/E257K/H272N/K175M/K195N/L47V/L88M/N227D/P291S/S58T/T264A/Y273L/Y87F); experiment: AggTag imaging of NaAsO2-induced SOD1(V31A)-Halo aggregation in HEK293T cells; type: cell-based, human; set-up: expressed in transfected cells; host or cells: HEK293T
Sequence of SOD1(V31A)-Halo (Rhodococcus rhodochrous, UniProt P0A3G2, A155T/A167V/A172T/A224E/C128F/C176G/D78G/E160K/E257K/H272N/K175M/K195N/L47V/L88M/N227D/P291S/S58T/T264A/Y273L/Y87F) (P0A3G2 other isoform, or with tags, fused parts or gaps with the stated changes): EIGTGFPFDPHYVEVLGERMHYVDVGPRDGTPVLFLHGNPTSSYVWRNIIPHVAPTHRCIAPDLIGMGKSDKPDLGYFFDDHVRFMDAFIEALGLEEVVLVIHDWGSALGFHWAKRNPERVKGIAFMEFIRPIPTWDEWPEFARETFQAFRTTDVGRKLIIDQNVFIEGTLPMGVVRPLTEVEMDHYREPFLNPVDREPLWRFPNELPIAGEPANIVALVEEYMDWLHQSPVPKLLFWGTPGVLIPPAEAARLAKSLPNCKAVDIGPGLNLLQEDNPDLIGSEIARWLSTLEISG
Method: (§1) During protein expression, medium is supplemented with 1 μM of coumarin ligand and 1 μM of 4 to enable a simultaneous dual-probe labeling to Halo-Tag. Note: Halo-Tag locates in both cytoplasm and nucleus. Blue: fluorescence from the Halo-Tag⋅coumarin conjugate. Red: fluorescence from the Halo-Tag-4 conjugate. Scale bar: 10 μm.
(§2) Confocal microscope imaging. The HEK293T cells were seeded at 25% confluency 24 h prior to transfection in poly-D-lysine coated 35 mm glass bottom dishes (MatTek Corporation). Cells were grown in DMEM media supplemented with 10% FBS and Penicillin-Streptomycin antibiotics until they reached 50-60% confluency. Transfection was carried out using X-tremeGene™ 9 DNA transfection reagent (Roche) according to the manufacturer's instructions. Proteins were expressed for 24 h prior to analyses. To label proteins with Halo-Tag fusion, protein expression was carried out in the presence of 1 μM 4 or 1 μM TMR Halo-Tag ligand to form covalent conjugate with the Halo-Tag domain. For a dual-probe labeling scheme, 1 μM 4 and 1 μM coumarin Halo-Tag ligand to simultaneously form covalent conjugate with the Halo-Tag domain.
(§3) HEK293T cultures were seeded at 25% confluency 24 h prior to transfection in 12-well plate for time dependent fluorescence plate reader analysis or 35 mm glass bottom culture dishes (Poly-d-lysine coated, MatTek Corporation). Cells were grown in DMEM medium supplemented with 10% FBS and penicillin-streptomycin antibiotics until they reached 50-60% confluency. Transfection was performed using X-tremeGene™ 9 DNA transfection reagent (Roche). After 24 h of protein expression and co-translational labeling, medium was replaced with fresh DMEM to diffuse out unbound ligands. After 30 min, media was replaced by fresh DMEM medium containing DMSO vehicle or NaAsO2 (50 μM). […] At indicated time points, fluorescence reading was obtained using a Tecan M1000Pro fluorescence plate reader. Fluorescence intensity was recorded at Ex=530 nm/Em=600 nm for 3 and Ex=450 nm/Em=480 nm for ThT. […] Fluorescence of 3 was measured at Ex=530 nm/Em=600 nm.

SOD1(V31A)-Halo [2] = biological target: SOD1(V31A)-Halo (UniProt P00441+P0A3G2, A155T/A167V/A172T/A224E/C128F/C176G/D78G/E160K/E257K/H272N/K175M/K195N/L47V/L88M/N227D/S58T/T264A/V32A/Y273L/Y87F); experiment: as above; type: cell-based, human; set-up: expressed in transfected cells; host or cells: HEK293T; conditions: NaAsO2
Sequence of SOD1(V31A)-Halo (UniProt P00441+P0A3G2, A155T/A167V/A172T/A224E/C128F/C176G/D78G/E160K/E257K/H272N/K175M/K195N/L47V/L88M/N227D/S58T/T264A/V32A/Y273L/Y87F) (P00441+P0A3G2 fused with the stated changes): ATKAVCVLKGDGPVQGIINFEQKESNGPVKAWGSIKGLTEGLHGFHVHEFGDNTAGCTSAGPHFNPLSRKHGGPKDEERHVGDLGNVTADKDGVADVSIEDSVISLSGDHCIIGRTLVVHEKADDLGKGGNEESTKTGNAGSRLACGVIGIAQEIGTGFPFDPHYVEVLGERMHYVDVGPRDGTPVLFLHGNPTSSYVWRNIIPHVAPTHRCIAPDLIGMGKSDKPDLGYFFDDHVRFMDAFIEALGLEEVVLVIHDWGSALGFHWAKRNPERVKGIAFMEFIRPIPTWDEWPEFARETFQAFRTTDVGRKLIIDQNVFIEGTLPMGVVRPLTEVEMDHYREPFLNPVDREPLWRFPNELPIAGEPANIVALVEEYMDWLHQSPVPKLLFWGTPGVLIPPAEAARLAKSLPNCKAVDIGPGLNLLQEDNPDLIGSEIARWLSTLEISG
Method: as §1, §2, §3

[3] = biological target: bovine serum albumin and sodium dodecyl sulfate (Bos taurus, UniProt P02769); experiment: Fluorescence background response to BSA and SDS; conditions: incubated with BSA or SDS
Sequence of bovine serum albumin and sodium dodecyl sulfate (P02769 25-607): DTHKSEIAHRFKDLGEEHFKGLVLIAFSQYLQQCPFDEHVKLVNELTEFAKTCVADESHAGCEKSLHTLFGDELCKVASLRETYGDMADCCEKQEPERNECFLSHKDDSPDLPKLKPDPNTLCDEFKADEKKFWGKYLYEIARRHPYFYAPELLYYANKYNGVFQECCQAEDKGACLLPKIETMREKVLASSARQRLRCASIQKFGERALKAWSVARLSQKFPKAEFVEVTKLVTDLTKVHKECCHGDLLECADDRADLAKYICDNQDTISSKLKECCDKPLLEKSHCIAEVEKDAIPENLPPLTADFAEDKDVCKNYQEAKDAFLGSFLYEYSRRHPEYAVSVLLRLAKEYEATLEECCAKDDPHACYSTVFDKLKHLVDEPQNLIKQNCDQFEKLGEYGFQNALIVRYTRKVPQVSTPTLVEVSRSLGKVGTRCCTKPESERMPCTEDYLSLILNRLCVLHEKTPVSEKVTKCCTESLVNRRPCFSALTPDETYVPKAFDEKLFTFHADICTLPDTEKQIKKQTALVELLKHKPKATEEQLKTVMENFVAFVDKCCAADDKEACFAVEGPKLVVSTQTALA
Method: 20 µM of fluorophores were incubated in H2O, glycerol, dioxane, BSA (2 mg/mL), or SDS (0.2%). Intensities were normalized against the value in either 100% glycerol as 1 for CCVJ and 4, or dioxane as 1 for SBD. Parameters for fluorescence measurement: SBD (Ex=450 nm/Em=545 nm), CCVJ (Ex=450 nm/Em=500 nm), 4 (Ex=530 nm/Em=630 nm). Error bars: standard error (n=3).

CN(C)c1ccc(/C=C2N=C(/C=C/c3ccc(N(CCO)CCO)cc3)N(CC(=O)N[C@H]3CC[C@H](C(=O)NCCOCCOCCCCCCCl)CC3)C\2=O)cc1 [Compound 4, (1r,4r)-4-(2-((Z)-2-((E)-4-(bis(2-hydroxyethyl)amino)styryl)-4-(4-(dimethylamino)benzylidene)-5-oxo-4,5-dihydro-1H-imidazol-1-yl)acetamido)-N-(2-(2-((6-chlorohexyl)oxy)ethoxy)ethyl)cyclohexanecarboxamide]
fluorescence in cells co-expressing Halo-Tag and SOD1-V31A-GFP (SOD1(V31A)-Halo [1]; NaAsO2 stressor 50 μM, 18 h, 37° C.): turn-on fluorescence was not observed
fluorescence in cells expressing Halo-Tag alone under stress (SOD1(V31A)-Halo [1]; NaAsO2 stressor, Halo-4 conjugate): remained dark in stressed cells; also recorded: fluorescence was not observed
fluorescence of SOD1(V31A)-Halo labeled cells before and after stress (SOD1(V31A)-Halo [2]): dark before stress but exhibited both diffuse and punctate fluorescent structures in stressed cells
fluorescent background signal versus SBD and CCVJ [3]: substantially lower fluorescent background signal
